From the NIST ThermoML archive (doi:10.1016/j.jct.2008.04.008)

Experiment: mn = molality of the nth substance listed, in mol/kg
Settings: Liquid; for speed of sound: Pulse-echo method

[Na+].[O-][Cl+3]([O-])([O-])[O-] [sodium perchlorate] + CO
Settings	mass density, 283.15 K [kg/m3]	mass density, 288.15 K [kg/m3]	mass density, 293.15 K [kg/m3]	mass density, 298.15 K [kg/m3]	mass density, 303.15 K [kg/m3]	mass density, 308.15 K [kg/m3]	mass density, 313.15 K [kg/m3]	speed of sound, 298.15 K [m/s]
m1 = 0.06243	805.671	800.986	796.296	791.593	786.871	782.134	777.365	1106.7
m1 = 0.0815	807.203	802.517	797.826	793.122	788.409	783.67	778.903	1107.7
m1 = 0.1008	808.744	804.058	799.365	794.669	789.952	785.213	780.447	1108.9
m1 = 0.1221	810.429	805.746	801.058	796.356	791.635	786.904	782.14	1110.1
m1 = 0.1416	811.984	807.3	802.609	797.903	793.191	788.455	783.694	1111.2
m1 = 0.1625	813.649	808.965	804.274	799.57	794.858	790.121	785.36	1112.4
m1 = 0.2036	816.875	812.189	807.5	802.798	798.077	793.334	788.581	1115.1
m1 = 0.2459	820.175	815.49	810.8	806.099	801.382	796.642	791.885	1117
m1 = 0.2865	823.32	818.628	813.937	809.237	804.52	799.783	795.021	1119
m1 = 0.3276	826.533	821.841	817.143	812.442	807.725	802.987	798.225	1121.3
m1 = 0.3701	829.792	825.099	820.402	815.691	810.974	806.236	801.475	1123.6
m1 = 0.412	832.991	828.296	823.6	818.891	814.168	809.417	804.668	1125.5
